Experimental data as given in patent US5959130A, “Castor based benzoate esters” (Finetex, Inc., priority 1997, dated 1999).

What was measured:
[1] = Gardnor scale
[2] = sunscreen solubility: PARSOL 1789, Table IV B; assay type: physicochemical
Text: (§1) These two sunscreens are difficult to dissolve and keep in solution for use in sunscreen formulations for optimal SPF (sun-protection factors). Higher solvency for a sunscreen ingredient is desirable as it allows higher concentrations of the sunscreen active ingredient in a formulation. This advantageously raises the SPF ratings for the formulation. The liquid organic sunscreens that are commonly used are octyl-methoxy cinnamate (OMC) and octyl salicylate (OS).
(§2) Solubility/Solvency Tables IVA and IVB show the solubility and concentrations of the sunscreen ingredient in the novel esters of the invention compared to their precursor raw materials (non-benzoate esters).

[3] = Hagman readings (particle size), titanium dioxide dispersion, Table VI A; assay type: physicochemical; conditions: TiO2 50%
Protocol: (§3) The novel benzoate esters of the invention were tested for pigment and dye dispersing efficacy. Color pastes were prepared by dispersing dry pigment into the oil phase while hand stirring and then passing each mixture through a three roll mill six times, collecting a 16 oz. sample after each pass. The samples collected were subjected to particle size measurements.

[4] = organoleptic evaluation of tactile characteristics on the forearm, Table VII; assay type: in vivo, individuals; conditions: rating, 1 = Worst 5 = Best
Protocol: The tactile characteristics of the novel benzoate esters of the invention were determined by applying the appropriate material, neat or as a dilution with another emollient ester, lanolin or […]. The properties were evaluated organoleptically after application to the interior surface of the forearm.

[5] = Hagman readings (particle size), Red No. 21 dispersion, Table VI A; assay type: physicochemical; conditions: Red No. 21 35%
Protocol: as §3

[6] = Hagman readings (particle size), Red No. 6 Barium Lake dispersion, Table VI A; assay type: physicochemical; conditions: Red No. 6 Barium Lake 35%
Protocol: as §3

[7] = in specific ratios
Text: The aforedescribed benzoate esters have unique properties that make them particularly suited for use as emollient carriers for cosmetic ingredients. […] Parsol® is a registered trademark of Givaudan Corp. of Clifon, N.J.

[8] = physical properties of benzoate esters compared to precursors, Table II; assay type: physicochemical
Text: Absence of odor is an important factor in consumer acceptance of cosmetic and toiletry products.

[9] = viscosity readings of titanium dioxide dispersions, Table VI B; assay type: physicochemical; conditions: for Viscosity reading of dispersion: Brookfield LVT-D @ 12 RPM, TiO2 50%
[10] = sunscreen solubility: Benzophenone-3, Table IV A; assay type: physicochemical
Text: as §1, §2

[11] = viscosity readings of Red No. 21 dispersions, Table VI B; assay type: physicochemical; conditions: Brookfield LVT-D @ 12 RPM, Red No. 21 35%
[12] = 23° C., 10 gms sunscreen in 100 gms mixture
[13] = 30° C., 10 gms sunscreen in 100 gms mixture
[14] = 30° C., 15 gms sunscreen in 100 gms mixture

CCCCCCCCCCCCCCCCOC(=O)CCCCCCCC=CCC(CCCCCC)OC(=O)c1ccccc1 (centres unmarked) [Example 9, Benzoate Ester of Cetyl Ricinoleate]
Color [1]: 4

CCCCCCC(CC=CCCCCCCCC(=O)OCC(COC(=O)CCCCCCCC=CCC(CCCCCC)OC(=O)c1ccccc1)OC(=O)CCCCCCCC=CCC(CCCCCC)OC(=O)c1ccccc1)OC(=O)c1ccccc1 (centres unmarked) [BCO, Benzoic acid ester of glyceryl tri-ricinoleate]
Sunscreen solubility (Parsol 1789) [2, 12]: + | Sunscreen solubility (Parsol 1789) ([2]; 30° C., 5 gms sunscreen in 100 gms mixture): + | Sunscreen solubility (Parsol 1789) [2, 13]: + | Sunscreen solubility (Parsol 1789) [2, 14]: + | Hagman reading (particle size) ([3]; pass 1): ≤ 30 μm | Hagman reading (particle size) ([3]; pass 2): ≤ 26 μm | Hagman reading (particle size) ([3]; pass 3): ≤ 20 μm | Hagman reading (particle size) ([3]; pass 4): ≤ 10 μm | Hagman reading (particle size) ([3]; pass 5): ≤ 10 μm | Hagman reading (particle size) ([3]; pass 6): ≤ 8 μm | GREASINESS/OILINESS [4]: 4 | OVERALL TACTILITY [4]: 3 | SPREADABILITY [4]: 4 | TACK [4]: 2 | Hagman reading (particle size) ([5]; pass 1): ≤ 39 μm | Hagman reading (particle size) ([5]; pass 2): ≤ 30 μm | Hagman reading (particle size) ([5]; pass 3): ≤ 26 μm | Hagman reading (particle size) ([5]; pass 4): ≤ 14 μm | Hagman reading (particle size) ([5]; pass 5): ≤ 12 μm | Hagman reading (particle size) ([5]; pass 6): ≤ 10 μm | Hagman reading (particle size) ([6]; pass 1): ≤ 49 μm | Hagman reading (particle size) ([6]; pass 2): ≤ 45 μm | Hagman reading (particle size) ([6]; pass 3): ≤ 42 μm | Hagman reading (particle size) ([6]; pass 4): ≤ 40 μm | Hagman reading (particle size) ([6]; pass 5): ≤ 36 μm | Hagman reading (particle size) ([6]; pass 6): ≤ 33 μm | miscibility with Parsol 1789 [7]: miscible | miscibility with benzophenone-3 [7]: miscible | S.G. (specific gravity) ([8]; 25° C.): 0.982 | VISCOSITY ([8]; Brookfield Viscometer, Spindle # 1, 10 rpm): 937 cps | viscosity of TiO2 dispersions (in words) [9]: much lower viscosity | Viscosity reading of dispersion ([9]; pass 1): 6552 cps | Viscosity reading of dispersion ([9]; pass 2): 7176 cps | Viscosity reading of dispersion ([9]; pass 3): 7800 cps | Viscosity reading of dispersion ([9]; pass 4): 7332 cps | Viscosity reading of dispersion ([9]; pass 5): 7176 cps | Viscosity reading of dispersion ([9]; pass 6): 6786 cps | Sunscreen solubility (Benzophenone-3) [10, 12]: + | Sunscreen solubility (Benzophenone-3) ([10]; 23° C., 15 gms sunscreen in 100 gms mixture): + | Sunscreen solubility (Benzophenone-3) [10, 13]: + | Sunscreen solubility (Benzophenone-3) [10, 14]: + | Viscosity reading of dispersion ([11]; pass 1): > 15,600 cps | Viscosity reading of dispersion ([11]; pass 2): > 15,600 cps | Viscosity reading of dispersion ([11]; pass 3): > 15,600 cps | Viscosity reading of dispersion ([11]; pass 4): > 15,600 cps | Viscosity reading of dispersion ([11]; pass 5): > 15,600 cps | Viscosity reading of dispersion ([11]; pass 6): > 15,600 cps

CCCCCCC(CCCCCCCCCCC(=O)OCC(COC(=O)CCCCCCCCCCC(CCCCCC)OC(=O)c1ccccc1)OC(=O)CCCCCCCCCCC(CCCCCC)OC(=O)c1ccccc1)OC(=O)c1ccccc1 (centres unmarked) [BHCO, Benzoic acid ester of glyceryl-trihydroxy stearate]
GREASINESS/OILINESS [4]: 4 | OVERALL TACTILITY [4]: 3 | SPREADABILITY [4]: 3 | TACK [4]: 3

CCCCCCC(O)CCCCCCCCCCC(=O)OCC(CC)CCCC (centres unmarked) [OHS, octyl hydroxystearate, reference compound]
Sunscreen solubility (Parsol 1789) [2, 12]: + | Sunscreen solubility (Parsol 1789) [2, 13]: + | Sunscreen solubility (Parsol 1789) [2, 14]: + | Sunscreen solubility (Benzophenone-3) [10, 12]: + | Sunscreen solubility (Benzophenone-3) [10, 13]: + | Sunscreen solubility (Benzophenone-3) [10, 14]: +

CCCCCCCCCCCCCCCCOC(=O)CCCCCCCC=CCC(CCCCCC)OC(=O)c1ccccc1 (centres unmarked) [Example 8, Benzoate Ester of Cetyl Ricinoleate]
Color [1]: 4
